Results reported in PMC11714206, “Massively Parallel Screening of Toll/Interleukin‐1 Receptor (TIR)‐Derived Peptides Reveals Multiple Toll‐Like Receptors (TLRs)‐Targeting Immunomodulatory Peptides” (Advanced Science, 2024).

Biological target: T1, MAL^TIR (Homo sapiens, UniProt P58753)
T1 construct: MAL (residues 79–221); 6xHis; made in house; host or cells: E. coli BL21 (DE3)
Assay: T‐Surf phage library (P8 and P3) selection against MAL^TIR, four rounds, NGS read counts
Format: binding
Settings: for P8_MAL Rank (after) / P8_MAL Rank (before): P8 library; for Rank (after): P8_MAL: rank by count after grouping; for Rank (before): P8_MAL: rank by count before grouping; for Population: P8_MAL pool: P8 T-Surf phage library, 4th round of selection against MAL TIR, share of NGS reads
Procedure, shortened: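 Coat TIR domain 5 µg mL^−1 overnight; block 0.2% BSA/PBS 1 h, 4 °C; add phage library 1 h, RT; wash ×4 PBS/0.5% Tween‐20; elute 100 mM HCl, neutralize Tris; amplify in TG1, PEG‐precipitate. Repeat to round 4; barcode PCR, NovaSeq, count reads.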

[1] = selection against MAL, rank after grouping
[2] = selection against MAL, rank before grouping
[3] = 4R selection against MAL, rank after grouping
[4] = 4R selection against MAL, rank before grouping
[5] = selection against MAL TIR, rank by count after grouping
[6] = selection against MAL TIR, rank by count before grouping

T1 sequence (P58753 79-221): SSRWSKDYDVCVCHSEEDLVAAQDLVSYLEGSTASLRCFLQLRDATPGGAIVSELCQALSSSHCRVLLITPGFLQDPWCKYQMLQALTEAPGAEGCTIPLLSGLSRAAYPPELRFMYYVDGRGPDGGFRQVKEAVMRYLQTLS

Rank (after) | Rank (before) | Sequence | also measured
 |  | WFYERLGSLMLRDTNV | P8_MAL Rank (after) [1]: 555; P8_MAL Rank (before) [2]: 1247
96 | 1250 | WFYERLLNLILRDTKV | 
 |  | WFYERLLSLILRDTKV | Population: 0.00278%
176 | 1248 | WFYERLLSLVLRDTKV | 
119 | 1249 | WFYERLLSRILRDTKV | 
 |  | WFYERLLTVIDRDTEV | P8_MAL Rank (after) [1]: 500; P8_MAL Rank (before) [2]: 1159
465 | 1171 | WFYERLVCLILRDIKV | 
458 | 1279 | WFYERLVCLLLRDSKV | 
 |  | WFYERLVGLILRDTKV | Population: 0.0034%
 |  | WFYERLVGLILRETEG | P8_MAL Rank (after) [3]: 660; P8_MAL Rank (before) [4]: 1163
129 | 1172 | WFYERLVGLIMRDTKV | 
 |  | WFYERLVILILRDTKV | Population: 0.00278%
 |  | WFYERLVILVLRDTKG | P8_MAL Rank (after) [5]: 250; P8_MAL Rank (before) [6]: 1179
166 | 1244 | WFYERLVKLVLRDTKV | 
 |  | WFYERLVNLILRDTIV | P8_MAL Rank (after) [3]: 668; P8_MAL Rank (before) [4]: 1241
140 | 1242 | WFYERLVNLNLRDTKV | 
446 | 1237 | WFYERLVRLFLRDTKV | 
 |  | WFYERLVRLILRDNKV | P8_MAL Rank (after) [3]: 607; P8_MAL Rank (before) [4]: 1280
174 | 1185 | WFYERLVRLILRDTKA | 
 |  | WFYERLVRLILRDTKV | Population: 0.00309%
 |  | WFYERLVRLILSDTKV | P8_MAL Rank (after) [1]: 549; P8_MAL Rank (before) [2]: 1175
179 | 1232 | WFYERLVSHMLRDTKV | 
 |  | WFYERLVSLFLRDTKV | Population: 0.00371%
 |  | WFYERLVSLILPVTKV | P8_MAL Rank (after) [5]: 229; P8_MAL Rank (before) [6]: 1264
474 | 1228 | WFYERLVSLILRATQV | 
 |  | WFYERLVSLILRDSKV | Population: 0.00309%
 |  | WFYERLVSLILRDTIV | Population: 0.00309%
 |  | WFYERLVSLILRDTKE | Population: 0.00309%

Rank (after) | Rank (before) | Sequence | also measured
 |  | WFYERLVSLILRDTKM | Population: 0.00402%
 |  | WFYERLVSLILRDTKX | Population: 0.0034%
187 | 1155 | WFYERLVSLILRHTKL | 
188 | 742 | WFYERLVSLILRIPK | 
 |  | WFYERLVSLILRNTKV | Population: 0.00309%
118 | 1290 | WFYERLVSLILRNTRV | 
 |  | WFYERLVSLILRVTKI | P8_MAL Rank (after) [1]: 553; P8_MAL Rank (before) [2]: 1199
 |  | WFYERLVSLILRVTKV | Population: 0.00309%
 |  | WFYERLVSLILRYTKE | P8_MAL Rank (after) [5]: 222; P8_MAL Rank (before) [6]: 1197
 |  | WFYERLVSLILRYTKV | Population: 0.00309%
117 | 1222 | WFYERLVSLIMRATKV | 
 |  | WFYERLVSLIMRDNIV | P8_MAL Rank (after) [3]: 634; P8_MAL Rank (before) [4]: 1183
 |  | WFYERLVSLIQRDTTV | P8_MAL Rank (after) [5]: 212; P8_MAL Rank (before) [6]: 1278
 |  | WFYERLVSLIRRDIKV | P8_MAL Rank (after) (selection against MAL, rank by count after grouping): 694; P8_MAL Rank (before) (selection against MAL, rank by count before grouping): 1219
106 | 1220 | WFYERLVSLIRRDTQV | 
170 | 1156 | WFYERLVSLLLRATKV | 
 |  | WFYERLVSLLLRDTKV | Population: 0.00309%
152 | 1193 | WFYERLVSLLMRDTKV | 
172 | 1269 | WFYERLVSLMLRDKKV | 
 |  | WFYERLVSLMLRNTKV | P8_MAL Rank (after) [1]: 540; P8_MAL Rank (before) [2]: 1225
 |  | WFYERLVSMITRDTNV | P8_MAL Rank (after) [1]: 486; P8_MAL Rank (before) [2]: 1271
406 | 1287 | WFYERLVSMVLRDTKV | 
 |  | WFYERMVRLILRDTKV | P8_MAL Rank (after) [5]: 247; P8_MAL Rank (before) [6]: 1291
136 | 1262 | WFYERMVSLILRDTKL | 
 |  | WFYERMVSMILRDTKV | P8_MAL Rank (after) [5]: 280; P8_MAL Rank (before) [6]: 1261
153 | 1256 | WFYERPVSLILRDTIV | 
98 | 1259 | WFYERQVSLILRDTNV | 
